# Columns and labels:
# Assay in all cases: KINOMEscan
# FES = biological target: T1, FES (Homo sapiens, UniProt P07332); type: binding; conditions: read-out: % Ctrl
# T1 construct: purchased DiscoveRx KINOMEscan
# FGFR4 = biological target: T2, FGFR4 (Homo sapiens, UniProt P22455); type: binding; conditions: read-out: % Ctrl
# T2 construct: purchased DiscoveRx KINOMEscan
# ABL1(H396P)-nonP = biological target: T3, ABL1(H396P)-nonP (Homo sapiens, UniProt P00519, H396P); type: binding; conditions: read-out: % Ctrl
# T3 construct: purchased DiscoveRx KINOMEscan
# ABL1(H396P)-P = biological target: T4, ABL1(H396P)-P (Homo sapiens, UniProt P00519, H396P); type: binding; conditions: read-out: % Ctrl
# T4 construct: purchased DiscoveRx KINOMEscan
# PFTK1 = biological target: T5, PFTK1 (Homo sapiens, UniProt O94921); type: binding; conditions: read-out: % Ctrl
# T5 construct: purchased DiscoveRx KINOMEscan
# PHKG2 = biological target: T6, PHKG2 (Homo sapiens, UniProt P15735); type: binding; conditions: read-out: % Ctrl
# T6 construct: purchased DiscoveRx KINOMEscan
# FLT3(ITD) = type: binding, human; conditions: 1 µM
# FLT3(N841I) = biological target: T7, FLT3(N841I) (Homo sapiens, UniProt P36888, N841I); type: binding; conditions: read-out: % Ctrl
# T7 construct: purchased DiscoveRx KINOMEscan
# ACVR1B = biological target: T8, ACVR1B (Homo sapiens, UniProt P36896); type: binding; conditions: read-out: % Ctrl
# T8 construct: purchased DiscoveRx KINOMEscan
# ACVR2B = biological target: T9, ACVR2B (Homo sapiens, UniProt Q13705); type: binding; conditions: read-out: % Ctrl
# T9 construct: purchased DiscoveRx KINOMEscan
# PKN1 = biological target: T10, PKN1 (Homo sapiens, UniProt Q16512); type: binding; conditions: read-out: % Ctrl
# T10 construct: purchased DiscoveRx KINOMEscan
# PKNB(M.tuberculosis) = biological target: T11, PKNB(M.tuberculosis) (Mycobacterium tuberculosis, UniProt P9WI81); type: binding; conditions: read-out: % Ctrl
# T11 construct: purchased DiscoveRx KINOMEscan
# BMPR1A = biological target: T12, BMPR1A (Homo sapiens, UniProt P36894); type: binding; conditions: read-out: % Ctrl
# T12 construct: purchased DiscoveRx KINOMEscan
# BMPR2 = biological target: T13, BMPR2 (Homo sapiens, UniProt Q13873); type: binding; conditions: read-out: % Ctrl
# T13 construct: purchased DiscoveRx KINOMEscan
# BRSK2 = biological target: T14, BRSK2 (Homo sapiens, UniProt Q8IWQ3); type: binding; conditions: read-out: % Ctrl
# T14 construct: purchased DiscoveRx KINOMEscan
# BTK = biological target: T15, BTK (Homo sapiens, UniProt Q06187); type: binding; conditions: read-out: % Ctrl
# T15 construct: purchased DiscoveRx KINOMEscan
# PRKD3 = biological target: T16, PRKD3 (Homo sapiens, UniProt O94806); type: binding; conditions: read-out: % Ctrl
# T16 construct: purchased DiscoveRx KINOMEscan
# JAK2(JH1D.-cat.) = biological target: T17, JAK2(JH1D.-cat.) (Homo sapiens, UniProt O60674); type: binding; conditions: read-out: % Ctrl
# T17 construct: JAK2(JH1D.-cat.); purchased DiscoveRx KINOMEscan
# CAMK1D = biological target: T18, CAMK1D (Homo sapiens, UniProt Q8IU85); type: binding; conditions: read-out: % Ctrl
# T18 construct: purchased DiscoveRx KINOMEscan
# PYK2 = biological target: T19, PYK2 (Homo sapiens, UniProt Q14289); type: binding; conditions: read-out: % Ctrl
# T19 construct: purchased DiscoveRx KINOMEscan
# QSK = biological target: T20, QSK (Homo sapiens, UniProt Q9Y2K2); type: binding; conditions: read-out: % Ctrl
# T20 construct: purchased DiscoveRx KINOMEscan
# CAMK2D = biological target: T21, CAMK2D (Homo sapiens, UniProt Q13557); type: binding; conditions: read-out: % Ctrl
# T21 construct: purchased DiscoveRx KINOMEscan
# CAMK4 = biological target: T22, CAMK4 (Homo sapiens, UniProt Q16566); type: binding; conditions: read-out: % Ctrl
# T22 construct: purchased DiscoveRx KINOMEscan
# CDK8 = biological target: T23, CDK8 (Homo sapiens, UniProt P49336); type: binding; conditions: read-out: % Ctrl
# T23 construct: purchased DiscoveRx KINOMEscan
# RPS6KA5(KD1-N-t.) = biological target: T24, RPS6KA5(KD1-N-t.) (Homo sapiens, UniProt O75582); type: binding; conditions: read-out: % Ctrl
# T24 construct: RPS6KA5(KD1-N-t.); purchased DiscoveRx KINOMEscan
# CDKL2 = biological target: T25, CDKL2 (Homo sapiens, UniProt Q92772); type: binding; conditions: read-out: % Ctrl
# T25 construct: purchased DiscoveRx KINOMEscan
# RSK1(KD2-C-t.) = biological target: T26, RSK1(KD2-C-t.) (Homo sapiens, UniProt Q15418); type: binding; conditions: read-out: % Ctrl
# T26 construct: RSK1(KD2-C-t.); purchased DiscoveRx KINOMEscan
# MAPKAPK2 = biological target: T27, MAPKAPK2 (Homo sapiens, UniProt P49137); type: binding; conditions: read-out: % Ctrl
# T27 construct: purchased DiscoveRx KINOMEscan
# CSF1R = biological target: T28, CSF1R (Homo sapiens, UniProt P07333); type: binding; conditions: read-out: % Ctrl
# T28 construct: purchased DiscoveRx KINOMEscan
# MARK1 = biological target: T29, MARK1 (Homo sapiens, UniProt Q9P0L2); type: binding; conditions: read-out: % Ctrl
# T29 construct: purchased DiscoveRx KINOMEscan
# STK36 = biological target: T30, STK36 (Homo sapiens, UniProt Q9NRP7); type: binding; conditions: read-out: % Ctrl
# T30 construct: purchased DiscoveRx KINOMEscan
# TESK1 = biological target: T31, TESK1 (Homo sapiens, UniProt Q15569); type: binding; conditions: read-out: % Ctrl
# T31 construct: purchased DiscoveRx KINOMEscan
# MST2 = biological target: T32, MST2 (Homo sapiens, UniProt Q13188); type: binding; conditions: read-out: % Ctrl
# T32 construct: purchased DiscoveRx KINOMEscan
# MTOR = biological target: T33, MTOR (Homo sapiens, UniProt P42345); type: binding; conditions: read-out: % Ctrl
# T33 construct: purchased DiscoveRx KINOMEscan
# MYLK = biological target: T34, MYLK (Homo sapiens, UniProt Q15746); type: binding; conditions: read-out: % Ctrl
# T34 construct: purchased DiscoveRx KINOMEscan
# EGFR(L861Q) = biological target: T35, EGFR(L861Q) (Homo sapiens, UniProt P00533, L861Q); type: binding; conditions: read-out: % Ctrl
# T35 construct: purchased DiscoveRx KINOMEscan
# EGFR(S752-I759del) = biological target: T36, EGFR(S752-I759del) (Homo sapiens, UniProt P00533, DEL752-759); type: binding; conditions: read-out: % Ctrl
# T36 construct: purchased DiscoveRx KINOMEscan
# EPHB2 = biological target: T37, EPHB2 (Homo sapiens, UniProt P29323); type: binding; conditions: read-out: % Ctrl
# T37 construct: purchased DiscoveRx KINOMEscan
# WNK1 = biological target: T38, WNK1 (Homo sapiens, UniProt Q9H4A3); type: binding; conditions: read-out: % Ctrl
# T38 construct: purchased DiscoveRx KINOMEscan
# p38-beta = biological target: T39, p38-beta (Homo sapiens, UniProt Q15759); type: binding; conditions: read-out: % Ctrl
# T39 construct: purchased DiscoveRx KINOMEscan
# WNK3 = biological target: T40, WNK3 (Homo sapiens, UniProt Q9BYP7); type: binding; conditions: read-out: % Ctrl
# T40 construct: purchased DiscoveRx KINOMEscan
# YANK3 = biological target: T41, YANK3 (Homo sapiens, UniProt Q86UX6); type: binding; conditions: read-out: % Ctrl
# T41 construct: purchased DiscoveRx KINOMEscan
# ZAK = biological target: T42, ZAK (Homo sapiens, UniProt Q9NYL2); type: binding; conditions: read-out: % Ctrl
# T42 construct: purchased DiscoveRx KINOMEscan
# T42 sequence (Q9NYL2 whole entry): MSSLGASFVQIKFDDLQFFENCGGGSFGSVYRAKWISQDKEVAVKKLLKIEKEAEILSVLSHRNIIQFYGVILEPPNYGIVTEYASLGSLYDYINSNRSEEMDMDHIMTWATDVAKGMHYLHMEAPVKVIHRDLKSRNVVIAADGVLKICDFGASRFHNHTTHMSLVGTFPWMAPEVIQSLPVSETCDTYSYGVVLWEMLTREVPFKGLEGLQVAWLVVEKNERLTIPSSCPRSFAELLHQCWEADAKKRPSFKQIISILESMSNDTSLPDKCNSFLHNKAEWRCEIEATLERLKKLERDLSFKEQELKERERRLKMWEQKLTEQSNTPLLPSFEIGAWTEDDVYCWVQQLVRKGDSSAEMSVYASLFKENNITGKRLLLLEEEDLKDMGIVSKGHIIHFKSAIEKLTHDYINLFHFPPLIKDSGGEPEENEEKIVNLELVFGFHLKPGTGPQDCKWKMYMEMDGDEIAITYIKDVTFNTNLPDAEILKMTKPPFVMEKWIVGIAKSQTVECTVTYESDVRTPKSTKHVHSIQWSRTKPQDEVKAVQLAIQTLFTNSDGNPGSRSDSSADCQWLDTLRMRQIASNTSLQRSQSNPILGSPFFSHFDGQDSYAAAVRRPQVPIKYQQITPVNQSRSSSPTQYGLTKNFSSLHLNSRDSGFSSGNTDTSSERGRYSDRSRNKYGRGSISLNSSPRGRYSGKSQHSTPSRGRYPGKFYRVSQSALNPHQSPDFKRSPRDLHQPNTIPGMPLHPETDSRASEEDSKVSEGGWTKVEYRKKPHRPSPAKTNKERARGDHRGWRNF
# T24 sequence (O75582 1-387 limits assumed): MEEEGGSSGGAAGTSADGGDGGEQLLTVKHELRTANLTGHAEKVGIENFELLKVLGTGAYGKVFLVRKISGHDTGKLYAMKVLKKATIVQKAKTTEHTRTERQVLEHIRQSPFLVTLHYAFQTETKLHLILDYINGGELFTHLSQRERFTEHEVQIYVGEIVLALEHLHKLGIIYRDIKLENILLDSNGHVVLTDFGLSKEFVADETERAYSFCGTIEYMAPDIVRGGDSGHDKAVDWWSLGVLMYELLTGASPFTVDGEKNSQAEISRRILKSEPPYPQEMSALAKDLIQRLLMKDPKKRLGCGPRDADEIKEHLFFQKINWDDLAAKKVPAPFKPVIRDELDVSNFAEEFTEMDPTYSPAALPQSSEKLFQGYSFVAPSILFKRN
# T23 sequence (P49336 whole entry): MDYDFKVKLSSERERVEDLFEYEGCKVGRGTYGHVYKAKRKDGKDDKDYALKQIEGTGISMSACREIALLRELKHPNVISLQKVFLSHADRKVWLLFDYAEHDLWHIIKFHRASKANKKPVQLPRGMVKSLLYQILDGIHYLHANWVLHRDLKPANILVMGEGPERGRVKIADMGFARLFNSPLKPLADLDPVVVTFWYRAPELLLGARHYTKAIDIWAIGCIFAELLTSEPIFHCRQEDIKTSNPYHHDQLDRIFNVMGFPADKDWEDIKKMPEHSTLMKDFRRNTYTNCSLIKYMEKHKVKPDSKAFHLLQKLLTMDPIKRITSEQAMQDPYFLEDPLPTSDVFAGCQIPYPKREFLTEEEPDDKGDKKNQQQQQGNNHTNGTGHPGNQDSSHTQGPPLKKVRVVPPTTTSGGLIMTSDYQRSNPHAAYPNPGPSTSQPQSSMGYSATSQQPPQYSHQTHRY
# T36 sequence (P00533 with tags, fused parts or gaps DEL752-759 limits assumed): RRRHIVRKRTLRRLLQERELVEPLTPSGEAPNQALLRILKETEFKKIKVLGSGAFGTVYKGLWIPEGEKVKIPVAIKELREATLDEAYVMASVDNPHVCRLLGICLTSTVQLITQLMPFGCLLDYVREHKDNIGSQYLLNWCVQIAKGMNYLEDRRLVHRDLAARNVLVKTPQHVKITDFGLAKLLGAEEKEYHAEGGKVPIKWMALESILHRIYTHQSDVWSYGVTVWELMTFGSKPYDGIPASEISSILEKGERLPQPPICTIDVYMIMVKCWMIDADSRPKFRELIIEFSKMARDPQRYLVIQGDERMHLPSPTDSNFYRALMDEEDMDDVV
# T31 sequence (Q15569 whole entry): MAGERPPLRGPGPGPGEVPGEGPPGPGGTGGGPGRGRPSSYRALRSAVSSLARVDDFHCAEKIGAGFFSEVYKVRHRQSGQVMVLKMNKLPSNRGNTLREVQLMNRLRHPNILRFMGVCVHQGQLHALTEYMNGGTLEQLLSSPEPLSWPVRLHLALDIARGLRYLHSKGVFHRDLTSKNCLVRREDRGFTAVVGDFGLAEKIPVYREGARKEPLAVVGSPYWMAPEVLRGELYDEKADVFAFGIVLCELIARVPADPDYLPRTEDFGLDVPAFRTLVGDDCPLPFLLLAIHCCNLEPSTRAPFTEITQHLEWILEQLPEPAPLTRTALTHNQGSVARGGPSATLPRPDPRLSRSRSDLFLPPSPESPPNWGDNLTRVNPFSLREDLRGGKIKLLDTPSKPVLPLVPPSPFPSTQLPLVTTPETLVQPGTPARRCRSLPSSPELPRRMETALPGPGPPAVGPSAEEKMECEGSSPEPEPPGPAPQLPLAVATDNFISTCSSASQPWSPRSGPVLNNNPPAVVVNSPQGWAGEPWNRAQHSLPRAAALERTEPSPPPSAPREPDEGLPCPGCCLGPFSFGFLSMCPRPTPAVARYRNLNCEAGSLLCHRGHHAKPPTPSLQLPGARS
# T32 sequence (Q13188 whole entry): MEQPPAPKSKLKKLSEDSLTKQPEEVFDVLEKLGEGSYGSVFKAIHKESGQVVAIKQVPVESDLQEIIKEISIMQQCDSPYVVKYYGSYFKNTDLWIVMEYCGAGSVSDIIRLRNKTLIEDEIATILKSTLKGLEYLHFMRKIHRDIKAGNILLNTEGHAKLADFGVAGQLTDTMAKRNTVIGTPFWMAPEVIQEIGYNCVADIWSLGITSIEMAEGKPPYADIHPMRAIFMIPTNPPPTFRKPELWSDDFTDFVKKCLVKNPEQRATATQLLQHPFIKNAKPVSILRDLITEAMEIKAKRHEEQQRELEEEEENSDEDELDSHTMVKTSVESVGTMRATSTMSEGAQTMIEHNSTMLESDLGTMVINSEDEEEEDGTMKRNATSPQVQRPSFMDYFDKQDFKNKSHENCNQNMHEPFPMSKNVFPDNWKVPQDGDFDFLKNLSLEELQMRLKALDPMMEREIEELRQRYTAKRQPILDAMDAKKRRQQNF
# T5 sequence (O94921 whole entry): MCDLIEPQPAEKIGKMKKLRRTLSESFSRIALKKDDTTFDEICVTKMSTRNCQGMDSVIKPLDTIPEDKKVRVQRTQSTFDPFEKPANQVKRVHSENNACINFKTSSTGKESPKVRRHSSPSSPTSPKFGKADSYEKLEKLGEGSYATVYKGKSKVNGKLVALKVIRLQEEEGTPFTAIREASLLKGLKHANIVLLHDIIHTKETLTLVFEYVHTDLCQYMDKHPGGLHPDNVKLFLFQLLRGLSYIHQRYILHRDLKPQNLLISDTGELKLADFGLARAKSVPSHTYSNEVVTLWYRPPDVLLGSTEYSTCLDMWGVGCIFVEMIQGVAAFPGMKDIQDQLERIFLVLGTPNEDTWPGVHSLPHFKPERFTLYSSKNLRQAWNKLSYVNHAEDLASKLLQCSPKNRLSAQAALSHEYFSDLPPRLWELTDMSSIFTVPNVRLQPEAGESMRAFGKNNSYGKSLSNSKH
# T26 sequence (Q15418 392-735 limits assumed): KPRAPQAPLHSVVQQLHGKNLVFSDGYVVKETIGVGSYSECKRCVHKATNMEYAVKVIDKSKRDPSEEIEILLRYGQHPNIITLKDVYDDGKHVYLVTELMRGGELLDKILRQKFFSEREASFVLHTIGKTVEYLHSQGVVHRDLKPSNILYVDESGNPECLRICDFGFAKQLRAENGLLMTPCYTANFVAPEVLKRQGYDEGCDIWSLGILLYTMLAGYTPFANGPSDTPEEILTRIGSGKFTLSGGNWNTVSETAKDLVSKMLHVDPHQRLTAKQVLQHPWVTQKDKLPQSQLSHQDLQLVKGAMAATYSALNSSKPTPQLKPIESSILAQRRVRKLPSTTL
# T13 sequence (Q13873 27-1038): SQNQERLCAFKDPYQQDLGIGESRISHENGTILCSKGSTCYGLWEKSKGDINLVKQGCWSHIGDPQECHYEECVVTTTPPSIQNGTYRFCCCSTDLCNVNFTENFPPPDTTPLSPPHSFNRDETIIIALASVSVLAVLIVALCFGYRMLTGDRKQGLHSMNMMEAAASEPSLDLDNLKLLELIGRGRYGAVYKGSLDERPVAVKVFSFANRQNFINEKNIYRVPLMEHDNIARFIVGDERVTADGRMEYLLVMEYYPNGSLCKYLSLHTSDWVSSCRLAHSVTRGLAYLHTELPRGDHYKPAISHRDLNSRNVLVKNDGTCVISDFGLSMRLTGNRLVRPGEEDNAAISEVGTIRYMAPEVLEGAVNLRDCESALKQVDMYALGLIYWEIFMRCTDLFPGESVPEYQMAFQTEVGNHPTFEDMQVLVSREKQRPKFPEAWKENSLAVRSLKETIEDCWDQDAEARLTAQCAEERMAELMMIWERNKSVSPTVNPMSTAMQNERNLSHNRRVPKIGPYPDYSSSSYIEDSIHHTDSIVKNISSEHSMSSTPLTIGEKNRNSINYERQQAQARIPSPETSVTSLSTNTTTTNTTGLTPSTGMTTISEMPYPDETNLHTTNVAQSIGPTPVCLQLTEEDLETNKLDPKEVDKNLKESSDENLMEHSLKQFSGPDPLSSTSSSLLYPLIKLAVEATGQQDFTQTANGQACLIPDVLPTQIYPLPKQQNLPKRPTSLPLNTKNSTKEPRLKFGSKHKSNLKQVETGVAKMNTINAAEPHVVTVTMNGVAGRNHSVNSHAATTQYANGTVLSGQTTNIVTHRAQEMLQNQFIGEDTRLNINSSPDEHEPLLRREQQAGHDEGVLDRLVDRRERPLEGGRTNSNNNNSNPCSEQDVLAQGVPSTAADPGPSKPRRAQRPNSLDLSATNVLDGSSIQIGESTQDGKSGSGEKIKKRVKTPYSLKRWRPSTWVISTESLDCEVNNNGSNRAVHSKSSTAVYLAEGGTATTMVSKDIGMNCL
structure (smiles),measurement,setting,value
CN1CCC(CNc2ccc3ncc(C(=O)Nc4cccc(OC(F)(F)F)c4)n3n2)CC1 [Cpd 2],remaining binding at 1 µM,FES,87%
same,remaining binding at 1 µM,FGFR4,100%
same,remaining binding at 1 µM,ABL1(H396P)-nonP,93%
same,remaining binding at 1 µM,ABL1(H396P)-P,100%
same,remaining binding at 1 µM,PFTK1,97%
same,remaining binding at 1 µM,PHKG2,89%
same,% Ctrl,FLT3(ITD),100%
same,remaining binding at 1 µM,FLT3(N841I),60%
same,remaining binding at 1 µM,ACVR1B,97%
same,remaining binding at 1 µM,ACVR2B,100%
same,remaining binding at 1 µM,PKN1,100%
same,remaining binding at 1 µM,PKNB(M.tuberculosis),90%
same,remaining binding at 1 µM,BMPR1A,97%
same,remaining binding at 1 µM,BMPR2,87%
same,remaining binding at 1 µM,BRSK2,100%
same,remaining binding at 1 µM,BTK,100%
same,remaining binding at 1 µM,PRKD3,92%
same,remaining binding at 1 µM,JAK2(JH1D.-cat.),96%
same,remaining binding at 1 µM,CAMK1D,94%
same,remaining binding at 1 µM,PYK2,95%
same,remaining binding at 1 µM,QSK,100%
same,remaining binding at 1 µM,CAMK2D,99%
same,remaining binding at 1 µM,CAMK4,100%
same,remaining binding at 1 µM,CDK8,58%
same,remaining binding at 1 µM,RPS6KA5(KD1-N-t.),100%
same,remaining binding at 1 µM,CDKL2,98%
same,remaining binding at 1 µM,RSK1(KD2-C-t.),89%
same,remaining binding at 1 µM,MAPKAPK2,94%
same,remaining binding at 1 µM,CSF1R,100%
same,remaining binding at 1 µM,MARK1,100%
same,remaining binding at 1 µM,STK36,100%
same,remaining binding at 1 µM,TESK1,90%
same,remaining binding at 1 µM,MST2,100%
same,remaining binding at 1 µM,MTOR,100%
same,remaining binding at 1 µM,MYLK,100%
same,remaining binding at 1 µM,EGFR(L861Q),94%
same,remaining binding at 1 µM,EGFR(S752-I759del),97%
same,remaining binding at 1 µM,EPHB2,95%
same,remaining binding at 1 µM,WNK1,100%
same,remaining binding at 1 µM,p38-beta,100%
same,remaining binding at 1 µM,WNK3,99%
same,remaining binding at 1 µM,YANK3,99%
same,remaining binding at 1 µM,ZAK,96%
